Results from PMC11882793 (Nature Communications, 2025).
No end group written: not given here. *: point of attachment. FITC = O=C1OC2(c3ccc(O)cc3Oc3cc(O)ccc32)c2ccc(NC(=S)*)cc21

Assays:
[1] = target: FITC-labeled peptide derived from the wild-type C-terminal sequence of SciP (C. crescentus); assay: fluorescence polarisation
[2] = target: T1, NTD of CcLon (aa. 1-206) (Caulobacter vibrioides, UniProt P0CAW0); assay: Fluorescence polarization, FITC-labeled degron peptides vs NTD; type: binding, C. crescentus; conditions: FP assay
T1 sequence (P0CAW0 1-206): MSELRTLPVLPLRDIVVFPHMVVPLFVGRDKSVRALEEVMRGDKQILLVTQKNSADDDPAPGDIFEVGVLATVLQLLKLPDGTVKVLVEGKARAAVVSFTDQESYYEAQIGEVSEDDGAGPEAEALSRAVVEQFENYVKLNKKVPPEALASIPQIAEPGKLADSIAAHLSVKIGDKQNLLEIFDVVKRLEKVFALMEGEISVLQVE

[3] = tested on: LarA-NTD complex; assay: Fluorescence polarization, FITC-labeled degron peptides vs LarA-NTD complex; type: binding, C. crescentus; conditions: FP assay

Row | Kd [1] [µM] | Substance | FP binding to NTD (in words) [2] | FP binding to LarA-NTD complex (in words) [3]
1 | 413 | LarA-NTD complex (from UniProt P0CAW0 1-206) | – | –
2 | – | {FITC}-HEAAPASAH [pep-LarA-mut] | failed to bind | failed to bind
3 | – | {FITC}-HELAPVSVH [pep-LarA-amidated] | no binding was observed | comparable to that of pep-LarA
4 | – | {FITC}-QSADRHGAAGARTTRAQQYR [pep-SciP-mut] | failed to bind | failed to bind
